# Experimental data as given in patent US10941151B2, “Chiral N-acyl-5,6,7(8-substituted)-tetrahydro-[1,2,4]triazolo[4,3-a]pyrazines as selective NK-3 receptor antagonists, pharmaceutical composition, methods for use in NK-3 receptor mediated disorders and chiral synthesis thereof” (Ogeda SA, priority 2011, dated 2021).
# Columns and labels:
# [1] = system: circulating levels of luteinizing hormone (LH); assay: Castrated male rat model, circulating luteinizing hormone (LH); type: in vivo; details: single intravenous 10 mg/kg dose, castrated male Sprague-Dawley rats, 1 hour after dosing
# Description: Vehicle, N=10 rats; Compound n^o 1, N=9 rats.
# Vehicle, n=5 rats; Compound n^o 19, n=5 rats.
# In humans and rodents, castration is well-precedented to permit heightened, persistent GnRH signaling and consequent elevation of circulating LH. Thus, a castrated rat model is used to provide a broad index for measurement of LH inhibition as a marker of test compound inhibition of the GnRH signaling pathway.
# Castrated adult male Sprague-Dawley (SD) rats (150-175 g,) were purchased from Janvier (St Berthevin, France). […] The animals were allowed 2 weeks of postoperative recovery prior to study. Animals were handled on a daily basis. Standard diet and tap water were provided ad libitum. Animal cage litters were changed once a week. On the study day, animals were acclimated to the procedure room for a period of one hour prior to the initiation of the experiment.
# Compounds of the invention were formulated as a […] with 90 g/L (2-Hydroxypropyl)-β-CycloDextrin.
# After basal sampling (T0) a single dose of compounds of the invention or vehicle was administrated intravenously to rats. Blood was then collected at 60 min post dosing. Blood samples were obtained via tail vein bleed, drawn into EDTA-containing tubes and centrifuged immediately. […] Serum LH levels were determined using radioimmunoas say kit from RIAZEN—Rat LH, Zentech (Liège, Belgium). […]
# [2] = system: circulating levels of testosterone; assay: Gonad-intact adult male rat, circulating testosterone; type: in vivo; details: single intravenous 50 mg/kg dose, gonad-intact male Sprague-Dawley rats, over 210 minute test period (AUC)
SMILES,circulating LH levels [1],plasma testosterone levels [2]
"Cc1nc(-c2nnc3n2CCN(C(=O)c2ccc(-c4cccs4)cc2)[C@@H]3C)cs1 [Compound 1, (R)-(8-methyl-3-(2-methylthiazol-4-yl)-5,6-dihydro-[1,2,4]triazolo[4,3-a]pyrazin-7(8H)-yl)(4-(thiophen-2-yl)phenyl)methanone]",significantly suppressed,significantly suppressed
"Cc1csc(-c2nnc3n2CCN(C(=O)c2ccc(-c4cccs4)cc2)[C@@H]3C)n1 [Compound 19, (R)-(8-methyl-3-(4-methylthiazol-2-yl)-5,6-dihydro-[1,2,4]triazolo[4,3-a]pyrazin-7(8H)-yl)(4-(thiophen-2-yl)phenyl)methanone]",significantly suppressed,–
